Values after ≈ are worked out from the molar mass of the structure shown. “Also recorded” adds a separate entry of the source.
How the values were obtained:
[1] = Host cell toxicity on Vero cells by the MTT method; format: cell-based; conditions: African green monkey, 24 h, 5-500 µg/mL, read-out: CC50 (50% cytotoxic concentration)
Procedure: (§1) The cytotoxicity of the natural and synthetic compounds was evaluated on Vero cells by the MTT method. The 50% cytotoxic concentration (CC50) of each compound was determined. Selectivity indexes (SI) were calculated for T. cruzi trypomastigotes and amastigotes and for L. braziliensis promastigotes (Table 1).
(§2) Vero cells were employed to determine the viability by the 3-(4,5-dimethylthiazol-2yl)-2,5-diphenyltetrazolium bromide (MTT) method. Cells (5 × 10^5) were settled at a final volume of […] in a flat-bottom 96-well microplate and cultured at 37 °C in a 5% CO2 atmosphere in either the absence or the presence of increasing concentrations of the compounds (5–500 µg/mL). After 24 h, MTT was added at a final concentration of 1.5 mg/mL. Plates were incubated for 2 h at 37 °C. The purple formazan crystals formed were dissolved with […] of ethanol and the absorbance was read at 570 nm in a microplate reader. Results were calculated as the ratio between the optical density in the presence and absence of the compound multiplied by 100.
(§3) Results are presented as means ± SEM. The GraphPad Prism 5.0 software (GraphPad Software Inc., San Diego, CA, USA) was employed to carry out calculations. To calculate IC50 and CC50 values, the percentages of inhibition were plotted against the drug concentration and fitted with a straight line determined by a linear regression (Sigma Plot 10 software, (Systat Software, San Jose, CA, USA). Results presented are representative of three to four independent experiments.

Vero cells = experiment: Host cell toxicity on Vero cells by the MTT method; format: cell-based
Procedure: as §1, §2, §3

[2] = system: T. cruzi bloodstream trypomastigotes; experiment: Trypanocidal activity on T. cruzi bloodstream trypomastigotes (counting of living parasites in Neubauer chamber); format: cell-based, Trypanosoma cruzi; conditions: for IC50: Trypanosoma cruzi, 24 h incubation, 0-100 µg/mL, living parasites counted, read-out: IC50 against T. cruzi bloodstream trypomastigotes; for Selectivity Index Trypomastigotes T. cruzi: Vero CC50 relative to trypomastigote IC50; for activity against the infective form of T. cruzi compared with estafietin (in words): trypomastigotes, discussion statement
Procedure: Figure 2 Trypanocidal activity of estafietin (1) and estafietin derivatives (2–5) against T. cruzi bloodstream trypomastigotes. Bloodstream trypomastigotes were assayed in duplicate in the presence of 0 to 100 µg/mL of estafietin (1), 11βH,13-dihydroestafietin (2), α- (3a) and β-epoxyestafietin (3b) (1:4 mixture), 11βH,13-methoxyestafietin (4) and 11βH,13-cianoestafietin (5). Cultures were done in 96-well plates with 1.5 × 10^6 parasites/mL over 24 h. The living parasites were then counted in a Neubauer chamber. Symbols represent mean ± SEM. Each treatment was compared to controls: parasites incubated with culture medium only. * p < 0.05, ** p < 0.01 and *** p < 0.005. TEXT PRINTED IN THE PICTURE: Estafietin (1): IC50 (μg/mL): 25.2 | 11βH,13-dihydroestafietin (2): IC50 (μg/mL): 97.1 | α and β epoxyestafietin (3a and 3b): IC50 (μg/mL): 18.7 | 11βH,13-methoxyestafietin (4): IC50 (μg/mL): >100 | 1βH,13-cianoestafietin (5): IC50 (μg/mL): 78.1
The trypanocidal effect of the purified compounds was tested on transfected bloodstream trypomastigotes (Tulhauen strain). Briefly, mouse blood containing trypomastigotes was diluted in complete LIT medium to adjust the parasite concentration to 2 × 10^6/mL. Parasites were seeded in duplicate in a 96-well microplate in the presence of each compound (0–100 µg/mL) and controls and incubated at 4 °C for 24 h. The number of remaining living parasites in each sample was determined in 5 µL of cell suspension diluted 1/5 in lysis buffer (0.75% NH4Cl, 0.2% Tris, pH 7.2) and counted in a Neubauer chamber.
as §3

T. cruzi amastigotes = experiment: Inhibition of T. cruzi amastigote replication in Vero cells (β-galactosidase transfected parasites, CPRG); format: cell-based, Trypanosoma cruzi; conditions: for IC50: infected Vero cells, 0-100 µg/mL, β-galactosidase/CPRG readout, read-out: IC50 against T. cruzi amastigotes (intracellular forms); for Selectivity Index Amastigotes T. cruzi: Vero CC50 relative to amastigote IC50
Procedure: Figure 3 Inhibition of T. cruzi amastigotes replication by estafietin (1) and estafietin derivatives (2–5). Mammalian cells (5 × 10^3 cells/well) were seeded in 96-well plates and infected 24 h later with transfected trypomastigotes expressing β-galactosidase. After 24 h of co-culture, plates were washed and compounds were added at 0–100 µg/mL in 150 µL medium. On day 6 post-infection, the assays were developed by the addition of CPRG (100 mM) and Nonidet P-40 (1%). Plates were incubated for 6 h and the optical density was read at 570 nm. Infected untreated mammalian cells were used as 100% infection control. The percentage of inhibition was calculated as 100 − {[(Absorbance of treated infected cells)/(Absorbance of untreated infected cells)] × 100}. Symbols represent mean ± SEM. Each treatment was compared to controls: parasites incubated with culture medium only. * p < 0.05, ** p < 0.01 and *** p < 0.005. TEXT PRINTED IN THE PICTURE: Estafietin (1): IC50 (μg/mL): 28.8 | 11βH,13-dihydroestafietin (2): IC50 (μg/mL): 83.0 | α and β epoxyestafietin (3a and 3b): IC50 (μg/mL): 2.0 | 11βH,13-methoxyestafietin (4): IC50 (μg/mL): 30.5 | 11βH,13-cianoestafietin (5): IC50 (μg/mL): 99.0
The effect of the compounds on intracellular forms of T. cruzi was assayed using β-galactosidase transfected parasites. Ninety-six well culture plates were seeded with nonphagocytic Vero cells at 5 × 10^3 per well in […] of culture medium and incubated for 24 h at 37 °C in a 5% CO2 atmosphere. Cells were then washed and infected with transfected bloodstream trypomastigotes expressing β-galactosidase at a parasite/cell ratio of 10:1. After […] of coculture, plates were washed twice with PBS to remove unbound parasites and each pure compound was added at different concentrations (0–100 µg/mL) in 150 µL of fresh complete RPMI medium without phenol red (Gibco, Rockville, MD, USA). Controls included infected untreated cells (100% infection control) and uninfected cells (0% infection control). The assay was developed by the addition of chlorophenolred-β-D-galactopyranoside (CPRG) (100 mM) and 1% Nonidet P40, 5 days later. Plates were incubated for 4–6 h at 37 °C and the absorbance was measured at 595 nm in a microplate reader (Bio-Rad Laboratories, Hercules, CA, USA). The percentage inhibition was calculated as 100 – {[(absorbance of treated infected cells)/(absorbance of untreated infected cells) × 100]} and the IC50 value was estimated. Benznidazole was used as positive control.
as §3

T. cruzi epimastigotes = system: T. cruzi epimastigotes; set-up: method as in PMID 23815577; conditions: series of 15 STLs; cited from earlier work
[3] = system: L. braziliensis promastigotes; experiment: Leishmanicidal activity on L. braziliensis promastigotes ([3H] thymidine uptake assay); format: cell-based, Leishmania braziliensis; conditions: for IC50: Leishmania braziliensis, 72 h, 0-50 µg/mL, [3H] thymidine uptake; for Selectivity Index Promastigotes L. braziliensis: Vero CC50 relative to promastigote IC50
Procedure: Figure 4 Leishmanicidal activity of estafietin (1) and estafietin derivatives (2–5) on L. braziliensis promastigotes. Parasites were cultured for 72 h in the presence of each compound (0–50 µg/mL). The inhibition of parasite growth was evaluated by a [^3H] thymidine uptake assay. The percentage of inhibition was calculated as 100 − [(cpm of treated parasites)/(cpm of untreated parasites)] × 100. Values represent mean ± SEM from three independent experiments carried out in triplicate. Each treatment was compared to controls: parasites incubated with culture medium only. * p < 0.05, ** p < 0.01 and *** p < 0.005. TEXT PRINTED IN THE PICTURE: Estafietin (1): IC50 (μg/mL): 1.0 | 11βH,13-dihydroestafietin (2): IC50 (μg/mL): 1.3 | α and β epoxyestafietin (3a and 3b): IC50 (μg/mL): 7.8 | 11βH,13-methoxyestafietin (4): IC50 (μg/mL): 48.7 | 11βH,13-cianoestafietin (5): IC50 (μg/mL): 51.8
The growth inhibition of Leishmania braziliensis promastigotes was evaluated by the (^3H) thymidine [(^3H)T] uptake assay. Parasites (5 × 10^6) were settled at a final volume of 150 µL in a flat-bottom 96-well microplate and cultured at 28 °C in either the absence or the increasing concentrations of the pure compounds (0–50 µg/mL). After 72 h, 1 µC of [^3H]T was added to each well, and cultures were incubated for 16 h. Counts per minute (cpm) of triplicate cultures were measured by an automated liquid scintillation counter (Packard, Downers Grove, IL, USA). The percentage of inhibition was calculated as {100 − [(cpm of treated parasites/cpm of untreated parasites) × 100]}. The compound concentration at which the parasite growth was inhibited by 50% (IC50) was determined. Amphotericin B was used as positive control.
as §3

| SMILES | CC50 at 24 h [1] | toxicity on mammalian cells (in words) (Vero cells) | IC50 [2] | Selectivity Index Trypomastigotes T. cruzi [2] | IC50 (T. cruzi amastigotes; Trypanosoma cruzi) | Selectivity Index Amastigotes T. cruzi (T. cruzi amastigotes) | activity on T. cruzi epimastigotes (in words) (T. cruzi epimastigotes) | IC50 [3] | Selectivity Index Promastigotes L. braziliensis [3] | activity against the infective form of T. cruzi compared with estafietin (in words) [2] | inhibition at 5 µg/mL (T. cruzi amastigotes; Trypanosoma cruzi, Vero, at a concentration of 5.0 µg/mL, read-out: percentage of inhibition of T. cruzi amastigotes) |
| --- | --- | --- | --- | --- | --- | --- | --- | --- | --- | --- | --- |
| C=C1CC[C@H]2C(=C)C(=O)O[C@@H]2C2C1C[C@H]1O[C@@]21C (stereo partly shown) [Compound 1, estafietin] | 240 µg/mL (≈ 976 µM) | low toxicity | 25.2 µg/mL (≈ 102 µM) | 9.5 | 28.8 µg/mL (≈ 117 µM) | 8.3 | significant activity | 1 µg/mL (≈ 4.06 µM) | 240.4 |  |  |
| O=C(Cn1ccnc1[N+](=O)[O-])NCc1ccccc1 [Benznidazole, reference compound] |  |  | 11.6 µg/mL (≈ 44.6 µM) |  | 1.8 µg/mL (≈ 6.92 µM) |  |  |  |  |  |  |
| C=C1CCC2C(COC)C(=O)OC2C2C1CC1OC12C (stereo not shown) [Compound 4, 11βH,13-methoxyestafietin] | 316 µg/mL (≈ 1130 µM) | low toxicity; also recorded: not toxic | > 100 µg/mL | 3.1 | 30.5 µg/mL (≈ 110 µM) | 10.3 |  | 48.7 µg/mL (≈ 175 µM) |  | less active |  |
| C=C1CCC2C(CC#N)C(=O)OC2C2C1CC1OC12C (stereo not shown) [Compound 5, 11βH,13-cianoestafietin] | 134 µg/mL (≈ 489 µM) | low toxicity | 78.1 µg/mL (≈ 286 µM) | 1.7 | 99 µg/mL (≈ 362 µM) | 1.3 |  | 51.8 µg/mL (≈ 190 µM) | 2.7 | inactive |  |
| C=C1C(=O)O[C@@H]2C3C(C[C@H]4O[C@@]34C)C3(CC[C@@H]12)CO3 (stereo partly shown) [Compound 3, epoxyestafietin] | 8.1 µg/mL (≈ 30.9 µM) |  | 18.7 µg/mL (≈ 71.3 µM) | 0.4 | 2 µg/mL (≈ 7.62 µM) | 4.0 |  | 7.8 µg/mL (≈ 29.7 µM) | 1.0 |  | > 75% |
| C[C@@H]1[C@H](O)[C@@H](C)/C=C/C=C/C=C/C=C/C=C/C=C/C=C/[C@H](O[C@@H]2O[C@H](C)[C@@H](O)[C@H](N)[C@@H]2O)C[C@@H]2O[C@](O)(C[C@@H](O)C[C@@H](O)[C@H](O)CC[C@@H](O)C[C@@H](O)CC(=O)O[C@H]1C)C[C@H](O)[C@H]2C(=O)O [Amphotericin B, reference compound] |  |  |  |  |  |  |  | 0.48 µg/mL (≈ 0.519 µM) |  |  |  |
| C=C1CCC2C(C)C(=O)OC2C2C1CC1OC12C (stereo not shown) [Compound 2, 11βH,13-dihydroestafietin] | 165 µg/mL (≈ 663 µM) | low toxicity | 97.1 µg/mL (≈ 391 µM) | 1.7 | 83 µg/mL (≈ 334 µM) | 2.0 |  | 1.3 µg/mL (≈ 5.24 µM) | 126.6 | less active |  |
